Where a name gives a salt, the structure may show the parent alone.
Tests used:
5-lipoxygenase = target: T1, 5-lipoxygenase (Rattus norvegicus, UniProt P12527); test: Inhibition of 5-lipoxygenase, in vitro; format: biochemical; details: 100,000×g supernatant of RBL-1 homogenate, [1-14C]-arachidonic acid and Ca++; average; read-out: average IC50, inhibition of 5-lipoxygenase (5-HETE synthesis)
T1 construct: supernatant fraction of Rat Basophilic Leukemia Cell Homogenate (RBL-1) serves as a 5-lipoxygenase enzyme source; endogenous in cells; host or cells: RBL-1 (rat basophilic leukemia) cells, 100,000×g supernatant of homogenate
T1 sequence (P12527 1-673): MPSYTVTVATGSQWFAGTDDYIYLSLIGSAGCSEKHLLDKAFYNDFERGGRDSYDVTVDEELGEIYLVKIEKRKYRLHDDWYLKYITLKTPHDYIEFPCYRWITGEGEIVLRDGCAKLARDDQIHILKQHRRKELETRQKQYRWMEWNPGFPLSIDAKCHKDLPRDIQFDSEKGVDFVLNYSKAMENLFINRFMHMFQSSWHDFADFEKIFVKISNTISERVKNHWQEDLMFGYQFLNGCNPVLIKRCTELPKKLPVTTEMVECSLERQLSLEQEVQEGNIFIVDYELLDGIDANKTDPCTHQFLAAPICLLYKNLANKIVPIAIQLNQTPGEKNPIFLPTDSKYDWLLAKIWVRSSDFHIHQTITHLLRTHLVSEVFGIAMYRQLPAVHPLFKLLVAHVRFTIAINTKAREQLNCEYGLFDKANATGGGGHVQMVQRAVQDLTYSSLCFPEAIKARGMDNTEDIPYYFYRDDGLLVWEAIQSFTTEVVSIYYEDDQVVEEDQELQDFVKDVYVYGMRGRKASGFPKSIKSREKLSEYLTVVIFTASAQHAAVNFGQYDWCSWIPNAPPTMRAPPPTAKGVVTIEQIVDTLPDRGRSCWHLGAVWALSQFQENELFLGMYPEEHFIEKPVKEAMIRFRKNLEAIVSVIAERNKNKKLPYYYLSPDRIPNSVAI
Method: The compounds of the invention are evaluated with respect to 5-lipoxygenaseinhibition according to the following assay procedure.
The 100,000×g supernatant fraction of Rat Basophilic Leukemia Cell Homogenate (RBL-1) serves as a 5-lipoxygenase enzyme source. The enzyme is incubated with [1-^14 C)-arachidonic acid and Ca++ in the presence and absence of test compound. The product of 5-lipoxygenase, 5-hydroxyeicosa-tetraenoic acid (5-HETE), is separated by thin-layer chromatography and measured by radioactivity. A compound inhibiting 5-HETE synthesis by 30% or more is considered active at that concentration.

[1] = system: superoxide generation by FMLP-stimulated human neutrophils; test: Human neutrophil superoxide generation (FMLP-stimulated, cytochrome C reduction); format: cell-based; details: pH 7.2, 37° C., preincubated 3 minutes, average, read-out: average IC50, inhibition of superoxide generation
Method: The compounds of the invention are evaluated with respect to superoxide modulating activity according to the following assay procedure:
Superoxide generation by formyl-methionyl-leucyl-phenylalanine (FMLP)-stimulated neutrophils was quantitated by the reduction of cytochrome C (Badwey, J. A., Curnutte, J. T. and Karnovsky, M. L., cis-Polyunsaturated fatty acids induce high levels of superoxide production by human neutrophils. J. Biol. Chem. 256:12640-12643, 1981.) To 5 million neutrophils in 2.85 ml of Krebs-Ringer phosphate buffer, pH 7.2, 50 ul of inhibitor (in 10% DMSO/buffer), and 50 ul ferricytochrome C (5 mM, stock) were added and preincubated for 3 minutes at 37° C. Absorption measurements at 550 nm were recorded at start of preincubation. Fifty ul FMLP (6 uM, stock) was added to initiate reaction. A plateau was reached within 3 minutes and this reading minus the initial reading (before addition of FMLP) was used to calculate nanomoles of superoxide generated based on a molar extinction coefficient of 2.1×10^4 cm^-1 mole^-1.
Human neutrophils were isolated from freshly drawn blood of healthy donors. Two ml of 5% dextran (MW 200,000-300,000) in saline was added to 10 ml aliquots of blood, mixed and placed upright for 45 min. at 37° C. Approx. […] The red cell lysing procedure was repeated, the cells suspended in appropriate buffer (depending on assay) and counted.

[2] = compared with histamine; background information; cited from earlier work

SMILES	IC50 (5-lipoxygenase) [µM]	IC50 [1] [µM]	potency in causing long lasting bronchoconstricting effects relative to histamine [2]
C[C@H](Sc1cc(C(C)(C)C)c(O)c(C(C)(C)C)c1)[C@@H](C)OCC(=O)NCCS(=O)(=O)O (relative stereo) [Example 5, 2-[[[2S*-[[3,5-bis(1,1-dimethylethyl)-4-hydroxyphenyl]thio]-1R*-methylpropoxy]acetyl]amino]ethanesulfonic acid, potassium salt]	3.25	87.5	
CCCCC/C=C\C\C=C/C=C/C=C/[C@@H](SC[C@H](NC(=O)CC[C@H](N)C(=O)O)C(=O)NCC(=O)O)[C@@H](O)CCCC(=O)O [LTC4]			at least 100 times
